Measurements from patent US20040156874A1, “Urea- a topical anti-inflammatory” (Bradley Pharmaceuticals, Inc., priority 2003, published 2004).

Tests used:
[1] = system: dermal inflammation; assay: topical urea applied to inflamed skin; type: in vivo
[2] = system: common organisms; settings: high concentrations of urea, such as 40%; cited from earlier work
[3] = system: horny layer of the skin; settings: normal horny layer or ichthyotic/psoriatic scales soaked in 30% urea solution; cited from earlier work

**Q.** For `NC(N)=O` [urea], which dermal inflammation ([1]; formulated in a pharmaceutically acceptable base) is on record?
**A.** improvement

**Q.** What about the “effectiveness against inflammation due to microbial infection” value ([1]; inflammation due to microbial infection) of the same molecule?
**A.** particularly effective

**Q.** What about the antibacterial effect [2] of the same molecule?
**A.** mild, antibacterial effect

**Q.** What about the “water uptake of horny layer” value [3] of the same molecule?
**A.** take up much more water
